Patent publication US7098372B1, “Pharmaceutical compositions and methods of using secreted frizzled related protein” (Wyeth, priority 1999, dated 2006)

How the values were obtained:
Format in all cases: cell-based, human
β-catenin = experiment: Western blot analysis for β-catenin; details: hOB-03-CE6 cells, 100 nM, 24 hr
Method: FIG. 15 is an autoradiogram of a Western blot of whole cell extracts isolated from hOB-03-CE6 cells treated with either control or PGE2 for 24 hr. The immunoblot was probed with a monoclonal antibody to β-catenin, which has a molecular weight of 92,000.
In order to determine if the up-regulation of SFRP-1/FRP-1/SARP-2 gene expression results in an antagonism of the Wnt signaling pathway, hOB-03-CE6 cells were treated with PGE2 and the resulting cells probed with β-catenin monoclonal antibody. Overexpression of Wnt proteins in cells up-regulates a signaling protein known as β-catenin (reviewed in Moon et al. 1997 Cell 88: 725–728; Barth et al. 1997 Curr. Opin. Cell Biol. 9: 683–690; and Nusse 1997 Cell 89: 321–323). […] Therefore, hOB-03-CE6 cells were plated and treated with PGE2 as described in Example 1, except that total cellular protein was extracted and a Western blot analysis for β-catenin was performed using a monoclonal antibody to the protein (Transduction Laboratories) as previously described (Bodine et al. 1996 Endocrinology 137: 4592–4604; Melkonyan et al. 1997 Proc. Natl. Acad. Sci. USA 94: 13636–13641). […] Both human and rat SFRP-1/FRP-1/SARP-2, as well as human Frzb-1/FrzB/Fritz, suppressed TCF-luciferase activity in the hOB cells.

hOB-03-C5 cells [1] = experiment: Generation of histone-associated DNA fragments
Method: (§1) The hypothesis that up-regulation of SFRP-1/FRP-1/SARP-2 gene expression accelerates hOB cell death, while down-regulation of SFRP-1/FRP-1/SARP-2 gene expression suppresses cell death, was next examined. […] The next day, the 6-well plates were rinsed with PBS, placed in BSA-medium, and treated at 39° C. in the absence or presence of either 100 nM PGE2 (in order to up-regulate SFRP-1/FRP-1/SARP-2 steady-state mRNA levels; panels A & B), or 0.01–1.0 nM TGF-β1 (in order to down-regulate SFRP-1/FRP-1/SARP-2 message levels; panel C). Incubating cells in serum-free medium is a common method to induce apoptosis (Melkonyan et al. 1997 Proc. Natl. Acad. Sci. USA 94: 13636–13641), and the hOB-03-C5, hOB-03-CE6 and hOB-01-C1 cell lines all stopped dividing and gradually died under these conditions. […] In contrast, treatment of the hOB-01-C1 cells with TGF-β1 increased cell viability about 2-fold in a dose-dependent manner. […] This observation was consistent with the induction of apoptosis, which is known to result in cytoplasmic blebbing, the loss of water and a decrease in cell volume (Mesner and Kaufmann 1997 in Advances in Pharmacology, vol. 41, pp. 57–88). […] Finally, treatment of the hOB-03-C5 cells with PGE2 increased annexin V (a specific marker for apoptosis) binding to the cell as measured by flow cytometry (FIG. 11).

hOB-03-C5 cells [2] = experiment: Apoptosis by flow cytometry using annexin V-FITC and propidium iodide
Method: Apoptosis was measured by flow cytometry using annexin V-FITC.
as §1

hOB-01-C1-PS-09 cells = experiment: Hepatocyte growth factor (HGF) secretion by hOB-01-C1-PS-09 cells; details: 39° C.

Molecule	β-catenin protein levels (β-catenin)	histone-associated DNA fragments (hOB-03-C5 cells [1])	annexin V binding to the cell (hOB-03-C5 cells [2])	number of apoptotic cells (annexin V but not propidium iodide) (hOB-03-C5 cells [2]; increasing concentrations)	number of necrotic cells (annexin V and propidium iodide) (hOB-03-C5 cells [2]; increasing concentrations)	number of viable cells (no annexin V or propidium iodide staining) (hOB-03-C5 cells [2]; increasing concentrations)	HGF secretion (hOB-01-C1-PS-09 cells)
CCCCC[C@H](O)/C=C/[C@H]1[C@H](O)CC(=O)[C@@H]1C/C=C\CCCC(=O)O [PGE2, prostaglandin E2]	down-regulated	resulted in the generation of histone-associated DNA fragments	increased	increases	increases	declines	–
human transforming growth factor-β1 [TGF-β1]	–	–	–	–	–	–	dose-dependent decrease
